{"source": "patent US9718819B2", "about": "(Merck Sharp & Dohme Corp., priority 2012, dated 2017)"}
{"molecular_target": "HIV-1 RT wild-type enzyme (Human immunodeficiency virus type 1 group M subtype B (isolate HXB2) (HIV-1), UniProt P04585)", "assay": "HIV-1 reverse transcriptase inhibitory activity (RT polymerase assay)", "format": "biochemical", "conditions": "not given", "procedure": "(§1) Determination of HIV-1 Reverse Transcriptase Inhibitory Activity\n(§2) The heterodimeric nucleic acid substrate used in the HIV-1 RT polymerase reactions was generated by annealing the DNA primer, biotinylated pD500 (Sigma Aldrich, USA, 5′-biotin-ttg aaa tga ctg cgg tac ggc-3′), SEQ ID NO. 1 to the nucleotide RNA template t500 (derived from hepatitis C virus [HCV] sequence, IBA, Germany, 5′-[…]-3′), SEQ ID NO 2). […] The mixture was then preincubated on an orbital shaker for 30 min at room temperature in microtiter plates (Costar 3365, Corning, USA). A polymerization reaction was initiated by the addition of RNA template/pD500 DNA primer hybrid (16.6 nM final of RNA/DNA hybrid) and dNTPs (2 μM dATP, dGTP, dCTP and 66.6 nM Ru-dUTP (Meso Scale Discovery, USA)). Plate was sealed and incubated for 5-10 min at room temperature on an orbital shaker. Plate was then incubated for 90 min at 37° C. and reactions quenched with 60 μl quenching buffer (50 mM EDTA, 0.7% BSA, 0.7% Tween-20, 0.017% sodium azide in PBS). The resulting solution was incubated at room temperature for an additional 5 min and then 50 μL was transferred to pre-blocked Avidin plates (L15AA, Meso Scale Discovery). Each well of Avidin plate was blocked for 1 h at room temperature with 100 μL 5% BSA in PBS. Blocking solution was removed by tapping vigorously on filter paper to remove all excess liquid. Reaction on pre-blocked avidin plate proceeded for 60 min at room temperature and then contents removed by tapping vigorously on filter paper to remove all excess liquid. After washing plate 3 times with 150 μL 1×PBS and blotting dry between cycles, 150 μL 1× Read Buffer T (4× Read Buffer T, Meso Scale Discovery) was added and incubated for 5 min at room temperature before counting on a Sector Imager […] (Meso Scale Discovery). Titration curves and IC50 values were calculated using a four parameter logisitc fit according to standard procedures. Briefly, % Inhibition=100×((sample raw value)−(mean value of the low control or 0% inhibition))/((mean value of wells representing 100% inhbition)−(mean value of 0% inhbition)). In this assay, low control wells contain DMSO (0% inhbition) and 100% inhibition wells contain 1 μM efavirenz.", "units": {"IC50": "nM"}}
{"smiles": "N#Cc1cc(Cl)cc(Oc2c(C(F)(F)F)ncn(Cc3cc(CO)c(=O)[nH]n3)c2=O)c1", "note": "[Example 12, 3-chloro-5-((1-((5-(hydroxymethyl)-6-oxo-1,6-dihydropyridazin-3-yl)methyl)-6-oxo-4-(trifluoromethyl)-1,6-dihydropyrimidin-5-yl)oxy)benzonitrile]", "IC50": 32}
{"molecular_target": "HIV-1 RT wild-type enzyme (Human immunodeficiency virus type 1 group M subtype B (isolate HXB2) (HIV-1), UniProt P04585)", "assay": "HIV-1 reverse transcriptase inhibitory activity (RT polymerase assay)", "format": "biochemical", "conditions": "HIV-1 RT wild-type enzyme 83 pM; RNA-dependent DNA polymerase activity; read-out: IC50", "procedure": "as §1, §2", "units": {"IC50": "nM"}}
{"smiles": "N#Cc1cc(Cl)cc(Oc2c(C(F)(F)F)ncn(Cc3n[nH]c(=O)c4cccnc34)c2=O)c1", "note": "[Example 1, 3-chloro-5-((6-oxo-1-((5-oxo-5,6-dihydropyrido[2,3-d]pyridazin-8-yl)methyl)-4-(trifluoromethyl)-1,6-dihydropyrimidin-5-yl)oxy)benzonitrile]", "IC50": 191}
{"smiles": "N#Cc1cc(Cl)cc(Oc2c(C(F)(F)F)ncn(Cc3cnc(O)cn3)c2=O)c1", "note": "[Example 2, 3-chloro-5-((1-((5-hydroxypyrazin-2-yl)methyl)-6-oxo-4-(trifluoromethyl)-1,6-dihydropyrimidin-5-yl)oxy)benzonitrile]", "IC50": 118}
{"smiles": "Cn1cc(Cn2cnc(C(F)(F)F)c(Oc3cc(Cl)cc(C#N)c3)c2=O)ncc1=O", "note": "[Example 3, 3-chloro-5-((1-((4-methyl-5-oxo-4,5-dihydropyrazin-2-yl)methyl)-6-oxo-4-(trifluoromethyl)-1,6-dihydropyrimidin-5-yl)oxy)benzonitrile]", "IC50": 33}
{"smiles": "N#Cc1cc(Cl)cc(Oc2c(C(F)(F)F)ncn(Cc3ncc[nH]c3=O)c2=O)c1", "note": "[Example 4, 3-chloro-5-((6-oxo-1-((3-oxo-3,4-dihydropyrazin-2-yl)methyl)-4-(trifluoromethyl)-1,6-dihydropyrimidin-5-yl)oxy)benzonitrile]", "IC50": 124}
{"smiles": "N#Cc1cc(Cl)cc(Oc2c(C(F)(F)F)ncn(Cc3ccn[nH]c3=O)c2=O)c1", "note": "[Example 5, 3-chloro-5-((6-oxo-1-((3-oxo-2,3-dihydropyridazin-4-yl)methyl)-4-(trifluoromethyl)-1,6-dihydropyrimidin-5-yl)oxy)benzonitrile]", "IC50": 6}
{"smiles": "[2H]C([2H])(c1ccc(=O)[nH]n1)n1cnc(C(F)(F)F)c(Oc2cc(Cl)cc(C#N)c2)c1=O", "note": "[Example 8]", "IC50": 9}
{"smiles": "N#Cc1cc(Cl)cc(Oc2c(C(F)(F)F)ncn(Cc3cc(C4CC(F)(F)C4)c(=O)[nH]n3)c2=O)c1", "note": "[Example 9, 3-chloro-5-((1-((5-(3,3-difluorocyclobutyl)-6-oxo-1,6-dihydropyridazin-3-yl)methyl)-6-oxo-4-(trifluoromethyl)-1,6-dihydropyrimidin-5-yl)oxy)benzonitrile]", "IC50": 109}
{"smiles": "CC(C)c1cc(Cn2cnc(C(F)(F)F)c(Oc3cc(Cl)cc(C#N)c3)c2=O)n[nH]c1=O", "note": "[Example 10, 3-chloro-5-((1-((5-isopropyl-6-oxo-1,6-dihydropyridazin-3-yl)methyl)-6-oxo-4-(trifluoromethyl)-1,6-dihydropyrimidin-5-yl)oxy)benzonitrile]", "IC50": 7}
{"smiles": "CC(C)(O)c1cc(Cn2cnc(C(F)(F)F)c(Oc3cc(Cl)cc(C#N)c3)c2=O)n[nH]c1=O", "note": "[Example 11, 3-chloro-5-((1-((5-(2-hydroxypropan-2-yl)-6-oxo-1,6-dihydropyridazin-3-yl)methyl)-6-oxo-4-(trifluoromethyl)-1,6-dihydropyrimidin-5-yl)oxy)benzonitrile]", "IC50": 124}
{"smiles": "Cc1ncn(Cc2ccc(=O)[nH]n2)c(=O)c1Oc1cc(Cl)cc(C#N)c1", "note": "[Example 13, 3-chloro-5-((4-methyl-6-oxo-1-((6-oxo-1,6-dihydropyridazin-3-yl)methyl)-1,6-dihydropyrimidin-5-yl)oxy)benzonitrile]", "IC50": 29}
{"smiles": "CC(O)c1cc(Cn2cnc(C(F)(F)F)c(Oc3cc(Cl)cc(C#N)c3)c2=O)n[nH]c1=O", "note": "(centres unmarked) [Example 14, 3-chloro-5-((1-((5-(1-hydroxyethyl)-6-oxo-1,6-dihydropyridazin-3-yl)methyl)-6-oxo-4-(trifluoromethyl)-1,6-dihydropyrimidin-5-yl)oxy)benzonitrile]", "IC50": 109}
{"smiles": "CC(F)c1cc(Cn2cnc(C(F)(F)F)c(Oc3cc(Cl)cc(C#N)c3)c2=O)n[nH]c1=O", "note": "(centres unmarked) [Example 15, 3-chloro-5-((1-((5-(1-fluoroethyl)-6-oxo-1,6-dihydropyridazin-3-yl)methyl)-6-oxo-4-(trifluoromethyl)-1,6-dihydropyrimidin-5-yl)oxy)benzonitrile]", "IC50": 13}
{"smiles": "N#Cc1cc(Cl)cc(Oc2c(C(F)(F)F)ncn(Cc3cc(CF)c(=O)[nH]n3)c2=O)c1", "note": "[Example 16, 3-chloro-5-((1-((5-(fluoromethyl)-6-oxo-1,6-dihydropyridazin-3-yl)methyl)-6-oxo-4-(trifluoromethyl)-1,6-dihydropyrimidin-5-yl)oxy)benzonitrile]", "IC50": 12}
{"smiles": "N#Cc1cc(Cl)cc(Oc2c(C(F)(F)F)ncn(Cc3cc(C(O)C4CC4)c(=O)[nH]n3)c2=O)c1", "note": "(centres unmarked) [Example 17, 3-chloro-5-((1-((5-(cyclopropyl(hydroxy)methyl)-6-oxo-1,6-dihydropyridazin-3-yl)methyl)-6-oxo-4-(trifluoromethyl)-1,6-dihydropyrimidin-5-yl)oxy)benzonitrile]", "IC50": 179}
{"smiles": "N#Cc1cc(Cl)cc(Oc2c(C(F)(F)F)ncn(Cc3ccc(=O)[nH]n3)c2=O)c1Cl", "note": "[Example 18, 2,5-dichloro-3-((6-oxo-1-((6-oxo-1,6-dihydropyridazin-3-yl)methyl)-4-(trifluoromethyl)-1,6-dihydropyrimidin-5-yl)oxy)benzonitrile]", "IC50": 5}
{"smiles": "N#Cc1cc(F)cc(Oc2c(C(F)(F)F)ncn(Cc3ccc(=O)[nH]n3)c2=O)c1", "note": "[Example 19, 3-fluoro-5-((6-oxo-1-((6-oxo-1,6-dihydropyridazin-3-yl)methyl)-4-(trifluoromethyl)-1,6-dihydropyrimidin-5-yl)oxy)benzonitrile]", "IC50": 31}
{"smiles": "N#Cc1cc(Oc2c(C(F)(F)F)ncn(Cc3ccc(=O)[nH]n3)c2=O)cc(C(F)(F)F)c1", "note": "[Example 20, 3-((6-oxo-1-((6-oxo-1,6-dihydropyridazin-3-yl)methyl)-4-(trifluoromethyl)-1,6-dihydropyrimidin-5-yl)oxy)-5-(trifluoromethyl) benzonitrile]", "IC50": 24}
{"smiles": "O=c1ccc(Cn2cnc(C(F)(F)F)c(Oc3cc(Cl)cc(C(F)(F)F)c3)c2=O)n[nH]1", "note": "[Example 21, 6-((5-(3-chloro-5-(trifluoromethyl)phenoxy)-6-oxo-4-(trifluoromethyl)pyrimidin-1(6H)-yl)methyl)pyridazin-3(2H)-one]", "IC50": 29}
{"smiles": "N#Cc1cc(Cl)cc(Oc2c(C(F)(F)F)ncn(Cc3cc(-c4ccccc4)c(=O)[nH]n3)c2=O)c1", "note": "[Example 22]", "IC50": 3}
{"smiles": "Cn1nc(Cn2cnc(C(F)(F)F)c(Oc3cc(Cl)cc(C#N)c3)c2=O)cc(Br)c1=O", "note": "[Example 23]", "IC50": 38}
{"smiles": "N#Cc1cc(Cl)cc(Oc2c(C(F)(F)F)ncn(Cc3cc(-c4ccc(OC(F)(F)F)cc4)c(=O)[nH]n3)c2=O)c1", "note": "[Example 24, 3-chloro-5-((6-oxo-1-((6-oxo-5-(4-(trifluoromethoxy)phenyl)-1,6-dihydropyridazin-3-yl)methyl)-4-(trifluoromethyl)-1,6-dihydropyrimidin-5-yl)oxy)benzonitrile]", "IC50": 24}
{"smiles": "N#Cc1cc(Cl)cc(Oc2c(C(F)(F)F)ncn(Cc3cc(-c4ccccc4F)c(=O)[nH]n3)c2=O)c1", "note": "[Example 25, 3-chloro-5-((1-((5-(2-fluorophenyl)-6-oxo-1,6-dihydropyridazin-3-yl)methyl)-6-oxo-4-(trifluoromethyl)-1,6-dihydropyrimidin-5-yl)oxy)benzonitrile]", "IC50": 9}
{"smiles": "N#Cc1cc(Cl)cc(Oc2c(C(F)(F)F)ncn(Cc3cc(-c4cccc(F)c4)c(=O)[nH]n3)c2=O)c1", "note": "[Example 26, 3-chloro-5-((1-((5(3-fluorophenyl)-6-oxo-1,6-dihydropyridazin-3-yl)methyl)-6-oxo-4-(trifluoromethyl)-1,6-dihydropyrimidin-5-yl)oxy)benzonitrile]", "IC50": 5}
{"smiles": "N#Cc1cc(Cl)cc(Oc2c(C(F)(F)F)ncn(Cc3cc(-c4cc(F)cc(Cl)c4)c(=O)[nH]n3)c2=O)c1", "note": "[Example 27, 3-chloro-5-((1-((5-(3-chloro-5-fluorophenyl)-6-oxo-1,6-dihydropyridazin-3-yl)methyl)-6-oxo-4-(trifluoromethyl)-1,6-dihydropyrimidin-5-yl)oxy)benzonitrile]", "IC50": 14}
{"smiles": "N#Cc1cc(Cl)cc(Oc2c(C(F)(F)F)ncn(Cc3cc(-c4ccc(Cl)cc4)c(=O)[nH]n3)c2=O)c1", "note": "[Example 28, 3-chloro-5-((1-((5-(4-chlorophenyl)-6-oxo-1,6-dihydropyridazin-3-yl)methyl)-6-oxo-4-(trifluoromethyl)-1,6-dihydropyrimidin-5-yl)oxy)benzonitrile]", "IC50": 5}
